How the values were obtained:
MDA-MB-468 = test: Growth inhibition of human MDA-MB-468 cells assessed as cell growth at 10 uM after 48 hrs by sulforhodamine B assay; assay type: functional; settings: MDA-MB-468, 48 h, read-out: Activity
UO-31 = test: Growth inhibition of human UO31 cells assessed as cell growth at 10 uM after 48 hrs by sulforhodamine B assay; assay type: functional; settings: UO-31, 48 h, read-out: Activity
PC-3 = test: Growth inhibition of human PC3 cells assessed as cell growth at 10 uM after 48 hrs by sulforhodamine B assay; assay type: functional; settings: PC-3, 48 h, read-out: Activity
HCT-15 [1] = test: Growth inhibition of human HCT15 cells after 48 hrs by sulforhodamine B assay; assay type: functional; settings: HCT-15, 48 h
NCI-H522 [2] = test: Growth inhibition of human NCI-H522 cells after 48 hrs by sulforhodamine B assay; assay type: functional; settings: NCI-H522, 48 h
COLO 205 = test: Growth inhibition of human COLO205 cells after 48 hrs by sulforhodamine B assay; assay type: functional; settings: COLO 205, 48 h
NCI-H460 = test: Growth inhibition of human NCI-H460 cells after 48 hrs by sulforhodamine B assay; assay type: functional; settings: NCI-H460, 48 h
HOP-62 = test: Growth inhibition of human HOP62 cells after 48 hrs by sulforhodamine B assay; assay type: functional; settings: HOP-62, 48 h; for CC50: read-out: LC50 (the source's name)
HOP-92 = test: Growth inhibition of human HOP92 cells after 48 hrs by sulforhodamine B assay; assay type: functional, cell-based; settings: HOP-92, 48 h
K562 = test: Growth inhibition of human K562 cells after 48 hrs by sulforhodamine B assay; assay type: functional; settings: K562, 48 h; for CC50: read-out: LC50 (the source's name)
HL-60(TB) = test: Growth inhibition of human HL-60(TB) cells after 48 hrs by sulforhodamine B assay; assay type: functional; settings: HL-60, 48 h; for CC50: read-out: LC50 (the source's name)
OVCAR-5 = test: Growth inhibition of human OVCAR5 cells assessed as cell growth at 10 uM after 48 hrs by sulforhodamine B assay; assay type: functional; settings: OVCAR-5, 48 h, read-out: Activity
OVCAR-8 [3] = test: Growth inhibition of human OVCAR8 cells assessed as cell growth at 10 uM after 48 hrs by sulforhodamine B assay; assay type: functional; settings: OVCAR-8, 48 h, read-out: Activity
OVCAR-3 = test: Growth inhibition of human OVCAR3 cells assessed as cell growth at 10 uM after 48 hrs by sulforhodamine B assay; assay type: functional; settings: OVCAR-3, 48 h, read-out: Activity
SK-MEL-2 = test: Growth inhibition of human SK-MEL-2 cells assessed as cell growth at 10 uM after 48 hrs by sulforhodamine B assay; assay type: functional; settings: SK-MEL-2, 48 h, read-out: Activity
M14 = test: Growth inhibition of human M14 cells assessed as cell growth at 10 uM after 48 hrs by sulforhodamine B assay; assay type: functional; settings: M14, 48 h, read-out: Activity
SW-620 = test: Growth inhibition of human SW620 cells assessed as cell growth at 10 uM after 48 hrs by sulforhodamine B assay; assay type: functional; settings: SW-620, 48 h, read-out: Activity
HT-29 = test: Growth inhibition of human HT-29 cells assessed as cell growth at 10 uM after 48 hrs by sulforhodamine B assay; assay type: functional; settings: HT-29, 48 h, read-out: Activity
KM12 = test: Growth inhibition of human KM12 cells assessed as cell growth at 10 uM after 48 hrs by sulforhodamine B assay; assay type: functional; settings: KM12, 48 h, read-out: Activity
HCT-15 [4] = test: Growth inhibition of human HCT15 cells assessed as cell growth at 10 uM after 48 hrs by sulforhodamine B assay; assay type: functional; settings: HCT-15, 48 h, read-out: Activity
NCI-H522 [5] = test: Growth inhibition of human NCI-H522 cells assessed as cell growth at 10 uM after 48 hrs by sulforhodamine B assay; assay type: functional; settings: NCI-H522, 48 h, read-out: Activity
NCI-H23 = test: Growth inhibition of human NCI-H23 cells assessed as cell growth at 10 uM after 48 hrs by sulforhodamine B assay; assay type: functional; settings: NCI-H23, 48 h, read-out: Activity
BT-549 = test: Growth inhibition of human BT549 cells after 48 hrs by sulforhodamine B assay; assay type: functional; settings: BT-549, 48 h
T47D = test: Growth inhibition of human T47D cells after 48 hrs by sulforhodamine B assay; assay type: functional; settings: for CC50: read-out: LC50 (the source's name)
DU-145 = test: Growth inhibition of human DU145 cells after 48 hrs by sulforhodamine B assay; assay type: functional; settings: DU-145, 48 h
CAKI-1 = test: Growth inhibition of human CAKI-1 cells after 48 hrs by sulforhodamine B assay; assay type: functional; settings: CAKI-1, 48 h; for CC50: read-out: LC50 (the source's name)
786-0 = test: Growth inhibition of human 786-0 cells after 48 hrs by sulforhodamine B assay; assay type: functional; settings: 786-0, 48 h; for CC50: read-out: LC50 (the source's name)
SK-OV-3 = test: Growth inhibition of human SKOV3 cells after 48 hrs by sulforhodamine B assay; assay type: functional; settings: SK-OV-3, 48 h; for CC50: read-out: LC50 (the source's name)
OVCAR-8 [6] = test: Growth inhibition of human OVCAR8 cells after 48 hrs by sulforhodamine B assay; assay type: functional; settings: OVCAR-8, 48 h; for CC50: read-out: LC50 (the source's name)
SK-MEL-28 = test: Growth inhibition of human SK-MEL-28 cells after 48 hrs by sulforhodamine B assay; assay type: functional; settings: SK-MEL-28, 48 h
LOX IMVI = test: Growth inhibition of human LOXIMVI cells after 48 hrs by sulforhodamine B assay; assay type: functional
SF-539 = test: Growth inhibition of human SF539 cells after 48 hrs by sulforhodamine B assay; assay type: functional; settings: SF-539, 48 h
RPMI-8226 = test: Growth inhibition of human RPMI8226 cells assessed as cell growth at 10 uM after 48 hrs by sulforhodamine B assay; assay type: functional; settings: RPMI-8226, 48 h, read-out: Activity
MOLT-4 = test: Growth inhibition of human MOLT4 cells assessed as cell growth at 10 uM after 48 hrs by sulforhodamine B assay; assay type: functional; settings: MOLT-4, 48 h, read-out: Activity

## O=C(Nc1cccc(-n2cc(-c3ccncc3)c(-c3ccc(Cl)c(O)c3)n2)c1)Nc1ccc(Cl)c(Cl)c1
MDA-MB-468
  growth at 10 µM: 2.25%
UO-31
  growth at 10 µM: 21%
PC-3
  growth at 10 µM: 5.43%
HCT-15 [1]
  GI50: 1.23 µM
  LC50: > 32.5 µM
  TGI: 29.6 µM
NCI-H522 [2]
  GI50: 1.19 µM
  LC50 (concentration killing 50% of cells): > 32.5 µM
  TGI: 10.6 µM
COLO 205
  GI50: 3.96 µM
  LC50 (concentration killing 50% of cells): 22.7 µM
  TGI: 9.49 µM
NCI-H460
  GI50: 0.993 µM
  LC50: 24.2 µM
  TGI: 3.57 µM
HOP-62
  GI50: 2.08 µM
  TGI: 17.6 µM
  CC50: > 32.5 µM
HOP-92
  GI50: 0.679 µM
  IC50: 0.68 µM
  LC50: > 32.5 µM
  TGI: 1.91 µM
K562
  GI50: 1.41 µM
  TGI: > 32.5 µM
  CC50: > 32.5 µM
HL-60(TB)
  GI50: 0.515 µM
  TGI: > 32.5 µM
  CC50: > 32.5 µM
OVCAR-5
  growth at 10 µM: 56.4%
OVCAR-8 [3]
  growth at 10 µM: 11.7%
OVCAR-3
  growth at 10 µM: -4.74%
SK-MEL-2
  growth at 10 µM: -25.4%
M14
  growth at 10 µM: 17.2%
SW-620
  growth at 10 µM: 24.5%
HT-29
  growth at 10 µM: 45.9%
KM12
  growth at 10 µM: 8.15%
HCT-15 [4]
  growth at 10 µM: 19.8%
NCI-H522 [5]
  growth at 10 µM: -6.8%
NCI-H23
  growth at 10 µM: 13.5%
BT-549
  GI50: 1.7 µM
  LC50 (50% lethal concentration): > 32.5 µM
  TGI: 16.1 µM
T47D
  GI50: 1.55 µM
  TGI: 17.9 µM
  CC50: > 32.5 µM
DU-145
  GI50: 1.5 µM
  LC50: > 32.5 µM
  TGI: > 32.5 µM
CAKI-1
  GI50: 1.11 µM
  TGI: 14.3 µM
  CC50: > 32.5 µM
786-0
  GI50: 7.22 µM
  TGI: > 32.5 µM
  CC50: > 32.5 µM
SK-OV-3
  GI50: 1.2 µM
  TGI: > 32.5 µM
  CC50: > 32.5 µM
OVCAR-8 [6]
  GI50: 1.21 µM
  TGI: > 32.5 µM
  CC50: > 32.5 µM
SK-MEL-28
  GI50: 1.46 µM
  LC50: > 32.5 µM
  TGI: 9.85 µM
LOX IMVI
  GI50: 0.939 µM
  LC50: 15 µM
  TGI: 3.57 µM
SF-539
  GI50: 1.34 µM
  LC50 (concentration killing 50% of cells): > 32.5 µM
  TGI: 8.97 µM
RPMI-8226
  growth at 10 µM: 7.89%
MOLT-4
  growth at 10 µM: 7.64%

## COc1cc(-c2nn(-c3cccc(NC(=O)c4ccc(Cl)c(C(F)(F)F)c4)c3)cc2-c2ccncc2)ccc1Cl
MDA-MB-468
  growth at 10 µM: 54.4%
UO-31
  growth at 10 µM: 37.1%
PC-3
  growth at 10 µM: 18.6%
HCT-15 [1]
  GI50: 3.25 µM
  LC50: > 32.5 µM
  TGI: > 32.5 µM
NCI-H522 [2]
  GI50: 1.04 µM
  LC50 (concentration killing 50% of cells): > 32.5 µM
  TGI: 13.4 µM
COLO 205
  GI50: 6.14 µM
  LC50 (concentration killing 50% of cells): > 32.5 µM
  TGI: 23.3 µM
NCI-H460
  GI50: 3.47 µM
  LC50: > 32.5 µM
  TGI: > 32.5 µM
HOP-62
  GI50: 13.1 µM
  TGI: > 32.5 µM
  CC50: > 32.5 µM
HOP-92
  GI50: 0.665 µM
  IC50: 0.67 µM
  LC50: > 32.5 µM
  TGI: 3.23 µM
K562
  GI50: 1.61 µM
  TGI: > 32.5 µM
  CC50: > 32.5 µM
HL-60(TB)
  GI50: 5.48 µM
  TGI: > 32.5 µM
  CC50: > 32.5 µM
OVCAR-5
  growth at 10 µM: 91.3%
OVCAR-8 [3]
  growth at 10 µM: 38.9%
OVCAR-3
  growth at 10 µM: 19.5%
SK-MEL-2
  growth at 10 µM: 18.9%
M14
  growth at 10 µM: 26.2%
SW-620
  growth at 10 µM: 36.1%
HT-29
  growth at 10 µM: 50.1%
KM12
  growth at 10 µM: 28.8%
HCT-15 [4]
  growth at 10 µM: 51.7%
NCI-H522 [5]
  growth at 10 µM: 1.5%
NCI-H23
  growth at 10 µM: 58.9%
BT-549
  GI50: 7.54 µM
  LC50 (50% lethal concentration): > 32.5 µM
  TGI: > 32.5 µM
T47D
  GI50: 2.05 µM
  TGI: > 32.5 µM
  CC50: > 32.5 µM
DU-145
  GI50: 6.39 µM
  LC50: > 32.5 µM
  TGI: > 32.5 µM
CAKI-1
  GI50: 2.3 µM
  TGI: > 32.5 µM
  CC50: > 32.5 µM
786-0
  GI50: 11 µM
  TGI: > 32.5 µM
  CC50: > 32.5 µM
SK-OV-3
  GI50: 9.29 µM
  TGI: > 32.5 µM
  CC50: > 32.5 µM
OVCAR-8 [6]
  GI50: 3.35 µM
  TGI: > 32.5 µM
  CC50: > 32.5 µM
SK-MEL-28
  GI50: 3.08 µM
  LC50: > 32.5 µM
  TGI: > 32.5 µM
LOX IMVI
  GI50: 1.92 µM
  LC50: > 32.5 µM
  TGI: > 32.5 µM
SF-539
  GI50: 4.13 µM
  LC50 (concentration killing 50% of cells): > 32.5 µM
  TGI: 20.3 µM
RPMI-8226
  growth at 10 µM: 25.4%
MOLT-4
  growth at 10 µM: 20.3%
